From patent publication US20230406885A1, “CYCLIC PEPTIDES FOR TRAPPING INTERLEUKIN-1 BETA” (MERCK SHARP & DOHME LLC, priority 2022, published 2023)
*1 amine or outer side, *2 acyl side, *3 side chain or, on linkers, in order; H or OH if unused. Where a SMILES comes first, the peptide text is derived from it. [ ]: non-standard residue; d: D form. Trp(4-Cl)(βS-Me) = C[C@@H](c1c[nH]c2cccc(Cl)c12)[C@H](N)C(=O)O; Trp(βS-Me,4-F) = C[C@@H](c1c[nH]c2cccc(F)c12)[C@H](N)C(=O)O; Bip(4'-COOH) = N[C@@H](Cc1ccc(-c2ccc(C(=O)O)cc2)cc1)C(=O)O; X1 = CC(=O)N1CCN(c2ccc(C[C@H](N[*:1])C(=O)[*:2])cn2)CC1; 1Nal(3S-Me) = C[C@@H](c1cccc2ccccc12)[C@H](N)C(=O)O; Phe(4-COOH) = N[C@@H](Cc1ccc(C(=O)O)cc1)C(=O)O; Trp(7-aza) = N[C@@H](Cc1c[nH]c2ncccc12)C(=O)O; h3Pal(5-CN) = N#Cc1cncc(CC[C@H](N)C(=O)O)c1; Pro(4R-NH2) = N[C@H]1CN[C@H](C(=O)O)C1; 1Nal = N[C@@H](Cc1cccc2ccccc12)C(=O)O; AEF = NCCOc1ccc(C[C@H](N)C(=O)O)cc1; hTyr = N[C@@H](CCc1ccc(O)cc1)C(=O)O; hCha = N[C@@H](CCC1CCCCC1)C(=O)O; hPhe = N[C@@H](CCc1ccccc1)C(=O)O; 4Pal = N[C@@H](Cc1ccncc1)C(=O)O; dDab = NCC[C@@H](N)C(=O)O; Orn = NCCC[C@H](N)C(=O)O; dNMeA = CN[C@H](C)C(=O)O; Dab = NCC[C@H](N)C(=O)O; Nva = CCC[C@H](N)C(=O)O; Dap = NC[C@H](N)C(=O)O; Aib = CC(C)(N)C(=O)O

The compounds below were run against T1, Recombinant human IL-1β (Homo sapiens, UniProt P01584) (assay: IL-6 assay in MRC5 cells: inhibition of IL-1β induced IL-6 secretion (AlphaLISA)). Details: inhibition of IL-1β induced IL-6 secretion in MRC5 cells; IL-1β pre-incubated 1 hour with compound; read-out: MRC5 IC50.
T1 construct: purchased BioLegend 579404
Format: cell-based
Protocol: Procedure for IL-6 Assay in MRC5 Cells
The inhibition of IL-1β induced IL-6 secretion was evaluated in MRC5 cells. Recombinant human IL-1β (BioLegend 579404) at 2×EC80 concentration was prepared in seeding medium, EMEM (ATCC 30-2003) with 0.025% BSA (Sigma A9576), 1× penicillin/streptomycin (Gibco 15070-063), 1×NEAA (Gibco 11140-050), 1× GlutaMax (Gibco 35050-061), and 1× sodium pyruvate (Gibco 11360-070). 20 μL of IL-1β was added to a 384-well collagen-coated plate (Corning 354664) and pre-incubated at ambient temperature for 1 hour with 200 nL of compound dispensed using an ECHO 555 liquid handler. Human lung fibroblast MRC5 cells (ATCC CCL-171) were added at a density of 3000 cells/20 μL per well. The cells were prepared by passaging three times in growth medium, EMEM (ATCC 30-2003) with 10% fetal bovine serum (Gibco 16140-071), 1× penicillin/streptomycin (Gibco 15070-063), 1×NEAA (Gibco 11140-050), 1× GlutaMax (Gibco 35050-061), and 1× sodium pyruvate (Gibco 11360-070) in collagen-coated T175 flasks (Greiner 661950) and harvested in seeding medium after 5 minutes of 0.25% trypsin-EDTA (Gibco 25200-056) digestion. The 384-well collagen-coated plate, containing a final volume of 40 μL, was incubated at 37° C., 5% CO2 overnight. 5 μL of the conditioned medium was transferred to a 384-well AlphaLISA plate (PerkinElmer 6005350) for detection of IL-6 using the human AlphaLISA IL-6 kit (PerkinElmer AL223F) as per the manufacturer's protocol. 20 μL of the acceptor bead/biotinylated antibody mix was added to the 384-well AlphaLISA plate and incubated for 1 hour at ambient temperature. The donor bead mix was protected from light and 25 μL was added to the plate and incubated for 30 minutes at ambient temperature. The AlphaLISA plate was read on an EnVision multimode plate reader (Perkin Elmer model 2104) using the AlphaScreen setting (laser exc at 680 nm and emis at 570 nm). Dose response curves and IC50 values were analyzed using a 4-parameter logistic equation in Spotfire software (Tibco, Palo Alto, CA).

T1 sequence (P01584 117-269): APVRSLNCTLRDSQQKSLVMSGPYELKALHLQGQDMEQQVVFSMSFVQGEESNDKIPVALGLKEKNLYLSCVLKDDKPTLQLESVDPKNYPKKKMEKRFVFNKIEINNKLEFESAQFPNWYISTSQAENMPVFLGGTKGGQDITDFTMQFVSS

IC50 [nM] | SMILES
0.256 | CC(=O)NCCOc1ccc(C[C@@H]2NC(=O)[C@H](CCc3ccc(O)cc3)NC(=O)C(C)(C)NC(=O)[C@H](CCCN)NC(=O)[C@H](Cc3cccc4ccccc34)NC(=O)[C@H](Cc3ccc(-c4ccc(C(=O)O)cc4)cc3)NC(=O)CNC(=O)[C@@H](C)N(C)C(=O)[C@H](CC(=O)O)NC(=O)[C@H]([C@@H](C)c3cccc4ccccc34)NC(=O)[C@@H]3C[C@@H](N)CN3C(=O)CNC(=O)[C@H](Cc3ccc(C(=O)O)cc3)NC(=O)[C@H](Cc3c[nH]c4ccccc34)NC2=O)cc1 [Example 99] (cyclo([AEF](Ac)W[Phe(4-COOH)]G[Pro(4R-NH2)][1Nal(3S-Me)]D[dNMeA]G[Bip(4'-COOH)][1Nal][Orn][Aib][hTyr]))
0.0617 | CC(=O)NCCOc1ccc(C[C@@H]2NC(=O)[C@H](CCc3ccc(O)cc3)NC(=O)[C@@H](C)NC(=O)[C@H](CO)NC(=O)[C@H](CCCCN)NC(=O)[C@H](Cc3ccc(-c4ccc(C(=O)O)cc4)cc3)NC(=O)CNC(=O)[C@@H](C)N(C)C(=O)[C@H](CC(=O)O)NC(=O)[C@H]([C@@H](C)c3cccc4ccccc34)NC(=O)[C@@H]3C[C@@H](N)CN3C(=O)CNC(=O)[C@H](Cc3ccc(C(=O)O)cc3)NC(=O)[C@H](Cc3c[nH]c4ccccc34)NC2=O)cc1 [Example 112] (cyclo([AEF](Ac)W[Phe(4-COOH)]G[Pro(4R-NH2)][1Nal(3S-Me)]D[dNMeA]G[Bip(4'-COOH)]KS[dA][hTyr]))
0.14 | CC(=O)N1CCN(c2ccc(C[C@@H]3NC(=O)[C@H](CCc4ccc(O)cc4)NC(=O)[C@@H](CCN)NC(=O)CNC(=O)[C@H](Cc4c[nH]c5ccccc45)NC(=O)[C@H](Cc4ccc(-c5ccc(C(=O)O)cc5)cc4)NC(=O)CNC(=O)[C@@H](C)N(C)C(=O)[C@H](CC(=O)O)NC(=O)[C@H]([C@@H](C)c4c[nH]c5cccc(F)c45)NC(=O)[C@@H]4C[C@@H](N)CN4C(=O)CNC(=O)[C@H](Cc4ccc(C(=O)O)cc4)NC(=O)[C@H](Cc4c[nH]c5ccccc45)NC3=O)cn2)CC1 [Example 8] (cyclo([X1]W[Phe(4-COOH)]G[Pro(4R-NH2)][Trp(βS-Me,4-F)]D[dNMeA]G[Bip(4'-COOH)]WG[dDab][hTyr]))
0.271 | CC(=O)NCCOc1ccc(C[C@@H]2NC(=O)[C@H](CCc3ccc(O)cc3)NC(=O)[C@@H](C)NC(=O)[C@H](CN)NC(=O)[C@H](Cc3c[nH]c4ccccc34)NC(=O)[C@H](Cc3ccc(-c4ccc(C(=O)O)cc4)cc3)NC(=O)CNC(=O)[C@@H](C)N(C)C(=O)[C@H](C)NC(=O)[C@H]([C@@H](C)c3cccc4ccccc34)NC(=O)[C@@H]3C[C@@H](N)CN3C(=O)CNC(=O)[C@H](Cc3ccc(C(=O)O)cc3)NC(=O)[C@H](Cc3c[nH]c4ccccc34)NC2=O)cc1 [Example 89] (cyclo([AEF](Ac)W[Phe(4-COOH)]G[Pro(4R-NH2)][1Nal(3S-Me)]A[dNMeA]G[Bip(4'-COOH)]W[Dap][dA][hTyr]))
0.135 | CC(=O)N1CCN(c2ccc(C[C@@H]3NC(=O)[C@H](CCc4ccc(O)cc4)NC(=O)[C@@H](CCN)NC(=O)[C@H](CC(C)C)NC(=O)[C@H](CCCCN)NC(=O)[C@H](Cc4ccc(-c5ccc(C(=O)O)cc5)cc4)NC(=O)CNC(=O)[C@@H](C)N(C)C(=O)[C@H](CC(=O)O)NC(=O)[C@H]([C@@H](C)c4c[nH]c5cccc(F)c45)NC(=O)[C@@H]4C[C@@H](N)CN4C(=O)CNC(=O)[C@H](Cc4ccc(C(=O)O)cc4)NC(=O)[C@H](Cc4c[nH]c5ccccc45)NC3=O)cn2)CC1 [Example 7] (cyclo([X1]W[Phe(4-COOH)]G[Pro(4R-NH2)][Trp(βS-Me,4-F)]D[dNMeA]G[Bip(4'-COOH)]KL[dDab][hTyr]))
0.085 | CC(=O)NCCOc1ccc(C[C@@H]2NC(=O)[C@H](CCc3ccccc3)NC(=O)[C@@H](C)NC(=O)[C@H](CCN)NC(=O)[C@H](Cc3c[nH]c4ccccc34)NC(=O)[C@H](Cc3ccc(-c4ccc(C(=O)O)cc4)cc3)NC(=O)CNC(=O)[C@@H](C)N(C)C(=O)[C@H](CC(=O)O)NC(=O)[C@H]([C@@H](C)c3cccc4ccccc34)NC(=O)[C@@H]3C[C@@H](N)CN3C(=O)CNC(=O)[C@H](Cc3ccc(C(=O)O)cc3)NC(=O)[C@H](Cc3c[nH]c4ccccc34)NC2=O)cc1 [Example 115] (cyclo([AEF](Ac)W[Phe(4-COOH)]G[Pro(4R-NH2)][1Nal(3S-Me)]D[dNMeA]G[Bip(4'-COOH)]W[Dab][dA][hPhe]))

Same assay, conditions: inhibition of IL-1β induced IL-6 secretion in MRC5 cells; read-out: MRC5 IC50

IC50 [nM] | SMILES
0.02 | CC(=O)NCCOc1ccc(C[C@@H]2NC(=O)[C@H](CCC3CCCCC3)NC(=O)[C@@H](CCN)NC(=O)CNC(=O)[C@H](Cc3c[nH]c4ncccc34)NC(=O)[C@H](Cc3ccc(-c4ccc(C(=O)O)cc4)cc3)NC(=O)CNC(=O)[C@@H](C)N(C)C(=O)[C@H](CC(=O)O)NC(=O)[C@H]([C@@H](C)c3cccc4ccccc34)NC(=O)[C@@H]3C[C@@H](N)CN3C(=O)CNC(=O)[C@H](Cc3ccc(C(=O)O)cc3)NC(=O)[C@H](Cc3c[nH]c4ccccc34)NC2=O)cc1 [Example 214] (cyclo([AEF](Ac)W[Phe(4-COOH)]G[Pro(4R-NH2)][1Nal(3S-Me)]D[dNMeA]G[Bip(4'-COOH)][Trp(7-aza)]G[dDab][hCha]))
0.37 | CC(=O)NCCOc1ccc(C[C@@H]2NC(=O)[C@H](CCc3ccc(O)cc3)NC(=O)[C@@H](CCN)NC(=O)[C@H](CC(C)C)NC(=O)[C@H](Cc3c[nH]c4ccccc34)NC(=O)[C@H](Cc3ccc(-c4ccc(C(=O)O)cc4)cc3)NC(=O)CNC(=O)[C@@H](C)N(C)C(=O)[C@H](CC(=O)O)NC(=O)[C@H]([C@@H](C)c3cccc4ccccc34)NC(=O)[C@@H]3C[C@@H](N)CN3C(=O)CNC(=O)[C@H](Cc3ccc(C(=O)O)cc3)NC(=O)[C@H](Cc3c[nH]c4ccccc34)NC2=O)cc1 [Example 126] (cyclo([AEF](Ac)W[Phe(4-COOH)]G[Pro(4R-NH2)][1Nal(3S-Me)]D[dNMeA]G[Bip(4'-COOH)]WL[dDab][hTyr]))
0.403 | CCC[C@@H]1NC(=O)[C@H](Cc2ccncc2)NC(=O)[C@H](Cc2ccc(-c3ccc(C(=O)O)cc3)cc2)NC(=O)CNC(=O)[C@@H](C)N(C)C(=O)[C@H](CC(=O)O)NC(=O)[C@H]([C@@H](C)c2c[nH]c3cccc(F)c23)NC(=O)[C@@H]2C[C@@H](N)CN2C(=O)CNC(=O)[C@H](Cc2ccc(C(=O)O)cc2)NC(=O)[C@H](Cc2c[nH]c3ccccc23)NC(=O)[C@H](Cc2ccc(OCCNC(C)=O)cc2)NC(=O)[C@H](CCc2ccc(O)cc2)NC(=O)[C@@H](C)NC1=O [Example 157] (cyclo([AEF](Ac)W[Phe(4-COOH)]G[Pro(4R-NH2)][Trp(βS-Me,4-F)]D[dNMeA]G[Bip(4'-COOH)][4Pal][Nva][dA][hTyr]))
0.013 | CC(=O)N1CCN(c2ccc(C[C@@H]3NC(=O)[C@H](CCc4cncc(C#N)c4)NC(=O)[C@@H](C)NC(=O)[C@H](CC(C)C)NC(=O)[C@H](CCC(N)=O)NC(=O)[C@H](Cc4ccc(-c5ccc(C(=O)O)cc5)cc4)NC(=O)CNC(=O)[C@@H](C)N(C)C(=O)[C@H](CC(=O)O)NC(=O)[C@H]([C@@H](C)c4cccc5ccccc45)NC(=O)[C@@H]4C[C@@H](N)CN4C(=O)CNC(=O)[C@H](Cc4ccc(C(=O)O)cc4)NC(=O)[C@H](Cc4c[nH]c5ccccc45)NC3=O)cn2)CC1 [Example 183] (cyclo([X1]W[Phe(4-COOH)]G[Pro(4R-NH2)][1Nal(3S-Me)]D[dNMeA]G[Bip(4'-COOH)]QL[dA][h3Pal(5-CN)]))
0.133 | CC(=O)NCCOc1ccc(C[C@@H]2NC(=O)[C@H](CCc3ccc(O)cc3)NC(=O)[C@@H](CCN)NC(=O)[C@H](CO)NC(=O)[C@H](CCCCN)NC(=O)[C@H](Cc3ccc(-c4ccc(C(=O)O)cc4)cc3)NC(=O)CNC(=O)[C@@H](C)N(C)C(=O)[C@H](CC(=O)O)NC(=O)[C@H]([C@@H](C)c3c[nH]c4cccc(Cl)c34)NC(=O)[C@@H]3C[C@@H](N)CN3C(=O)CNC(=O)[C@H](Cc3ccc(C(=O)O)cc3)NC(=O)[C@H](Cc3c[nH]c4ccccc34)NC2=O)cc1 [Example 139] (cyclo([AEF](Ac)W[Phe(4-COOH)]G[Pro(4R-NH2)][Trp(4-Cl)(βS-Me)]D[dNMeA]G[Bip(4'-COOH)]KS[dDab][hTyr]))
0.114 | CC(=O)NCCOc1ccc(C[C@@H]2NC(=O)[C@H](CCc3cncc(C#N)c3)NC(=O)C(C)(C)NC(=O)[C@H](CN)NC(=O)[C@H](Cc3cccc4ccccc34)NC(=O)[C@H](Cc3ccc(-c4ccc(C(=O)O)cc4)cc3)NC(=O)CNC(=O)[C@@H](C)N(C)C(=O)[C@H](CC(=O)O)NC(=O)[C@H]([C@@H](C)c3c[nH]c4cccc(Cl)c34)NC(=O)[C@@H]3C[C@@H](N)CN3C(=O)CNC(=O)[C@H](Cc3ccc(C(=O)O)cc3)NC(=O)[C@H](Cc3c[nH]c4ccccc34)NC2=O)cc1 [Example 130] (cyclo([AEF](Ac)W[Phe(4-COOH)]G[Pro(4R-NH2)][Trp(4-Cl)(βS-Me)]D[dNMeA]G[Bip(4'-COOH)][1Nal][Dap][Aib][h3Pal(5-CN)]))
